{
  "source": "patent US20240117303A1",
  "about": "“METHODS AND COMPOSITIONS FOR GENERATING HUMAN MIDBRAIN DOPAMINERGIC NEURONS FROM NEURAL PROGENITOR CELLS” (Trailhead Biosystems Inc., priority 2022, published 2024)",
  "test_system": "stage 1 neural stem cells",
  "test": "HD-DoE 12-factor experiment for stage 2 recipe (first model, FIG. 5-7, 12)",
  "type": "cell-based, human",
  "conditions": "for factor contribution: positive impact",
  "text": "To further guide the differentiation of midbrain-committed neural stem cells to neural progenitor cells at stage 2, we performed an additional HD-DoE experiment. We thereby obtained additional gene regulatory models that were used for preparation of differentiation protocol. The basis of this was a 12-factor HD-DoE experiment with focus on initiation of differentiation of cells toward midbrain neural progenitor cells for an additional 3 days after termination of stage 1 treatment. Here, we focused on expression of LMX1A and FOXA2 in neural progenitor cells with low to zero expression of GBX2. LMX1A had significant high expression level in the model with value of 47888. Therefore, we used optimization setting for this gene to identify the positive factors. The factors in this experiment included SC79, MK2206, ZM336372, PD0325901, CHIR99021, A 83-01, TTNPB, AGN193109, GW3965, SR9243, Purmorphamine and GSI-XX.\nTo assess the impact of elimination of each validated factor, we used dynamic profile analysis and compared the expression level of genes of interest in absence of each finalized factor while others are present.\nIn the stage 2 recipe, each of the six finalized factors were removed while the other five factors were present and the expression levels of FOXA2, LMX1A and GBX2 were assessed, compared to the levels in the presence of all factors. According to the first experiment model, the absence of TTNPB lead to a rise of GBX2 expression, while the value of FOXA2 and LMX1A reduced drastically from 10,000 to 0 and 30,000 to 15,000, respectively. The absence of A 83-01 reduced the expression of FOXA2 from 10,000 to 7000, however, as expected, the value of LMX1A increased from 30,000 to 40,000. […] According to the second experiment model, the absence of BMP7 and MK2206 both reduced the level of FOXA2 while increasing the value of LMX1A, with BMP7 as the main effector that led to 0 expression of FOXA2.",
  "key": {"[1]": {"conditions": "dynamic profile / model, 12 effectors"}},
  "note": "“Also recorded” adds a separate entry of the source.",
  "data": [
    {"smiles": "Cc1c[nH]c(-c2cnc(NCCNc3ccc(C#N)cn3)nc2-c2ccc(Cl)cc2Cl)n1", "note": "[CHIR99021]", "values": [
      {"measurement": "impact on expression of FOXA2", "setting": "[1]", "value": "reduces"},
      {"measurement": "impact on expression of LMX1A", "setting": "[1]", "value": "positive effect; also recorded: positive impact"},
      {"measurement": "impact on expression level of GBX2", "setting": "dynamic profile, 12 effectors", "value": "increases"},
      {"measurement": "factor contribution", "setting": "model optimized for LMX1A", "value": 8.3},
      {"measurement": "factor contribution", "setting": "model optimized for maximum expression of FOXA2", "value": 10.7}
    ]}
  ]
}
